According to patent EP4552639A1, “COMPOUNDS FOR USE IN THE TREATMENT OF GASTROINTESTINAL STROMAL TUMOR (GIST)” (priority 2023, dated 2025):

Test system: KIT/PDGFRA-mutated cell lines
Assay: Cell viability assay (GR50)
Format: cell-based
Details: Figure 2
Experimental: Cell viability assays were performed as previously described (Grunewald, S., et al., Resistance to avapritinib in PDGFRA-driven GIST is caused by secondary mutations in the PDGFRA kinase domain. Cancer Discov, 2020). To generate the results presented in Figures 2 and 3, cells were plated at 4000-16000 cells/well in a 96-well plate and cultured overnight. Cells were then incubated in triplicates with media containing inhibitors or solvent control (DMSO) for 72 hours. The sulforhodamine B (SRB) assay was used according to the method of Skehan and colleagues (Skehan, P., et al., New colorimetric cytotoxicity assay for anticancer-drug screening. J.Natl.Cancer Inst., 1990. 82(13): p. 1107-1112).
To generate the results in for the KIT-driven cell lines (GIST-T1; T1-D816E, and T1-V654A) in Figures 1, 6, 7, and 8, cells were plated in triplicates at 400 cells/well in a 384-well plate with media containing inhibitors or solvent control (DMSO) and incubated for 72 hours. The Cell Titer Glo assay (Promega) was applied according to manufacturer's instructions. Absorption or luminescence was measured with a SPARK™ Plate reader (Tecan, Switzerland). One measurement of untreated cells at the at the start of treatment served as baseline for growth reduction (GR) calculations. […]

NC(=O)Nc1cc(-c2cccc(F)c2)sc1C(=O)N[C@H]1CCCNC1 [Preparation Example 3a.1, (S)-5-(3-fluorophenyl)-N-(piperidin-3-yl)-3-ureidothiophene-2-carboxamide]
cellular GR50 (concentration of a drug that reduces cell growth rate by half): 1 to 30 nM
